Key:
P2X7 receptor = P2X7 receptor (Homo sapiens (Human), UniProt Q99572); assay: Human P2X7 channel calcium-influx assay (Fluo-8 NW, FLIPR TETRA, Bz-ATP stimulation); format: cell-based; conditions: HEK-293 cells stably transfected with P2X7 receptor, Low Divalent Cation Assay Buffer, read-out: hP2X7 IC50
Experimental: (§1) Extracellular binding of Bz-ATP to P2X7 receptor opens the channel and allows Ca^2+ influx into the cells. This Ca^2+ entry was measured in HEK-293 cells stably transfected with P2X7 receptor using Screen Quest™ Fluo-8 No Wash Calcium Assay Kit (AAt Bioquest®, cat. 36316). Once inside the cell, the lipophilic blocking groups of Fluo-8 are cleaved by non-specific cell esterases, resulting in a negatively-charged fluorescent dye that stays inside cells. Its fluorescence increases upon binding to calcium. When HEK-293/P2X7 cells are stimulated with Bz-ATP, Ca^2+ enters the cells and the fluorescence of Fluo-8 NW increases.
(§2) HEK-293 cells stably transfected with P2X7 receptor were seeded overnight in growth medium at 10,000 to 20,000 cells/well in 384-well plate. 24 hours later, the medium was removed, and the cells were pre-loaded at RT for 1 hour with 20 μL/w of Fluo-8 NW. Then 10 μL/w of test compounds and reference antagonist A438079 at 3X-concentration were injected with the […] and the kinetic response over a period of five minutes was monitored.

mP2X7 = mP2X7 (Mus musculus (Mouse), UniProt Q9Z1M0); assay: mP2X7 channel calcium-influx assay (Fluo-8 NW, FLIPR TETRA, Bz-ATP stimulation); format: cell-based
Chain of mP2X7 (Q9Z1M0 whole entry): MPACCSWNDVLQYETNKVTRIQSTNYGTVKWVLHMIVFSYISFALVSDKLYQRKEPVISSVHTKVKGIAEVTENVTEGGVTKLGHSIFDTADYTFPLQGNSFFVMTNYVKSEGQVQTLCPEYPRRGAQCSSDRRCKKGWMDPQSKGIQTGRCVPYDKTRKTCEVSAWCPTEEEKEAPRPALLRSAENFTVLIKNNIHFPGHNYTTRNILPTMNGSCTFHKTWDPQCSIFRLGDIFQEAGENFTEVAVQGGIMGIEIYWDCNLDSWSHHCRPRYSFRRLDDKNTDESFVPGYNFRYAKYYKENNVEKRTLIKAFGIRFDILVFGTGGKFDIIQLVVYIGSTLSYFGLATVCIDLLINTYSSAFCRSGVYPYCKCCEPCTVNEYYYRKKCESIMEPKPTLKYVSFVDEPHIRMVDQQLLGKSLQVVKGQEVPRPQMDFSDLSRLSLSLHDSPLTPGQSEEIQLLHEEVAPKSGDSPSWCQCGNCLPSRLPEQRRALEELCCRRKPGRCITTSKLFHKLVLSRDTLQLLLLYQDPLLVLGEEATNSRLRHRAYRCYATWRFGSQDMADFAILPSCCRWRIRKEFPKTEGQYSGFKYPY
Experimental: as §1, §2

CYP4503A4 = CYP4503A4 metabolic induction (mRNA expression) in human cryopreserved platable hepatocytes; format: in vitro ADME; conditions: 10 μM test compound, two days treatment, mRNA by QuantiGene Plex 2.0
Experimental: In Vitro Evaluation of Test Compounds for CYP4503A4 Metabolic Induction Using Human Liver Hepatocytes.
CYP induction assessment was performed using human cryopreserved platable hepatocytes. Test compound was assessed at three or six different concentrations in duplicate.
A sandwich culture of platable cryopreserved hepatocytes was used with one day recovery period after plating. Assessment of cell morphology and confluency was performed using a phase-contrast microscope for representative wells.
The plated hepatocyte cell monolayers were treated with test compound, negative and positive controls for two days changing medium every 24 hours. On the fourth day, assessment of cell morphology and confluency was repeated to ensure cell monolayer integrity. Assessment of cell morphology and confluency was performed using a phase-contrast microscope for representative wells.
Cell monolayers were assessed for test compound cytotoxicity by an adenosine triphosphate (ATP) content assay in a separate plate.
Expression levels of mRNA for CYP1A2, CYP2B6, and CYP3A4 were evaluated by the QuantiGene® Plex 2.0 methodology.

Chain of P2X7 receptor (Q99572 whole entry): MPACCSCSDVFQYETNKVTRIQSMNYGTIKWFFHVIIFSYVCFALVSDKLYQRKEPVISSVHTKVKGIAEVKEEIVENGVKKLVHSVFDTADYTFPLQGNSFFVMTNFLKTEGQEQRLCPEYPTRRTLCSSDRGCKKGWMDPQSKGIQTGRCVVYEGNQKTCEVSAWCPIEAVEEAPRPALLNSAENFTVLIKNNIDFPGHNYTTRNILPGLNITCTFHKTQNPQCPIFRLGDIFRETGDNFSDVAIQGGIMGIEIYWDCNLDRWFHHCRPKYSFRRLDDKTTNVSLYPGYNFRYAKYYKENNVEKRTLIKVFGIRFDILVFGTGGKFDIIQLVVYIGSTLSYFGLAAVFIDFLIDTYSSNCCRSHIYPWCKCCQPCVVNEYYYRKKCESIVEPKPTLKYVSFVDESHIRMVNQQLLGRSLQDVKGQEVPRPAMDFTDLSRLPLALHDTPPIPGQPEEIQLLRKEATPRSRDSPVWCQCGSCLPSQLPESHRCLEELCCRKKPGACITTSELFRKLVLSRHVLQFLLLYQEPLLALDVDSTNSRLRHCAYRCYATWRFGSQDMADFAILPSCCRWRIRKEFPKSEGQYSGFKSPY

In the case of `O=C(NCC(c1scnc1C(F)F)N1CCC(Oc2cccnc2)CC1)c1c(F)cccc1Cl` (centres unmarked) [Example 2, 2-chloro-N-{2-[4-(difluoromethyl)-1,3-thiazol-5-yl]-2-[4-(pyridin-3-yloxy)piperidin-1-yl]ethyl}-6-fluorobenzamide], the IC50 (P2X7 receptor) is reported as 35.9 nM, the IC50 (mP2X7) is reported as 36.9 nM and the “CYP4503A4 mRNA fold increase at 10 μM” value (CYP4503A4) is reported as 4.8 fold.

For `O=C(NCC(c1scnc1C(F)F)N1CCC(Oc2ccncc2)CC1)c1c(F)cccc1Cl` (centres unmarked) [Example 3, 2-chloro-N-{2-[4-(difluoromethyl)-1,3-thiazol-5-yl]-2-[4-(pyridin-4-yloxy)piperidin-1-yl]ethyl}-6-fluorobenzamide], the IC50 (P2X7 receptor) was 37.7 nM, the IC50 (mP2X7) was 80.8 nM and the “CYP4503A4 mRNA fold increase at 10 μM” value (CYP4503A4) was 4.4 fold.

`O=C(NCC(c1scnc1C(F)F)N1CCC(Oc2cncc(F)c2)CC1)c1c(F)cccc1Cl` (centres unmarked) [Example 5, 2-chloro-N-{2-[4-(difluoromethyl)-1,3-thiazol-5-yl]-2-{4-[(5-fluoropyridin-3-yl)oxy]piperidin-1-yl}ethyl}-6-fluorobenzamide] was tested, and the IC50 (P2X7 receptor) was 23.7 nM, the IC50 (mP2X7) was 26.9 nM and the “CYP4503A4 mRNA fold increase at 10 μM” value (CYP4503A4) was 5.0 fold.

In the case of `O=C(NCC(c1scnc1C(F)F)N1CCC(Oc2ncccc2F)CC1)c1c(F)cccc1Cl` (centres unmarked) [Example 7, 2-chloro-N-{2-[4-(difluoromethyl)-1,3-thiazol-5-yl]-2-{4-[(3-fluoropyridin-2-yl)oxy]piperidin-1-yl}ethyl}-6-fluorobenzamide], the IC50 (P2X7 receptor) is reported as 32.6 nM, the IC50 (mP2X7) is reported as 28.9 nM and the “CYP4503A4 mRNA fold increase at 10 μM” value (CYP4503A4) is reported as 5.6 fold.

`Cc1cc(COC2CCN(C(CNC(=O)c3c(F)cccc3Cl)c3scnc3C(F)F)CC2)no1` (centres unmarked) [Example 8, 2-chloro-N-{2-[4-(difluoromethyl)-1,3-thiazol-5-yl]-2-{4-[(5-methyl-1,2-oxazol-3-yl)methoxy]piperidin-1-yl}ethyl}-6-fluorobenzamide] was tested, and the IC50 (P2X7 receptor) was 47.8 nM, the IC50 (mP2X7) was 170 nM and the “CYP4503A4 mRNA fold increase at 10 μM” value (CYP4503A4) was 2.2 fold.

For `Cc1noc(C)c1COC1CCN(C(CNC(=O)c2c(F)cccc2Cl)c2scnc2C(F)F)CC1` (centres unmarked) [Example 9, 2-chloro-N-{2-[4-(difluoromethyl)-1,3-thiazol-5-yl]-2-{4-[(dimethyl-1,2-oxazol-4-yl)methoxy]piperidin-1-yl}ethyl}-6-fluorobenzamide], the IC50 (P2X7 receptor) was 64 nM, the IC50 (mP2X7) was 53.9 nM and the “CYP4503A4 mRNA fold increase at 10 μM” value (CYP4503A4) was 2.6 fold.

`Cc1nsc(OC2CCN(C(CNC(=O)c3c(F)cccc3Cl)c3scnc3C(F)F)CC2)n1` (centres unmarked) [Example 11, 2-Chloro-N-{2-[4-(difluoromethyl)-1,3-thiazol-5-yl]-2-{4-[(3-methyl-1,2,4-thiadiazol-5-yl)oxy]piperidin-1-yl}ethyl}-6-fluorobenzamide] was tested, and the IC50 (P2X7 receptor) was 50.5 nM, the IC50 (mP2X7) was 183 nM and the “CYP4503A4 mRNA fold increase at 10 μM” value (CYP4503A4) was 7.9 fold.

`Cc1cccnc1OCC1CCN(C(CNC(=O)c2c(F)cccc2Cl)c2scnc2C(F)F)CC1` (centres unmarked) [Example 99, 2-Chloro-N-{2-[4-(difluoromethyl)-1,3-thiazol-5-yl]-2-(4-{[(3-methylpyridin-2-yl)oxy]methyl}piperidin-1-yl)ethyl}-6-fluorobenzamide] gave an IC50 (P2X7 receptor) of 22.8 nM and an IC50 (mP2X7) of 15.2 nM.

In the case of `Cc1cnc(OCC2CCN(C(CNC(=O)c3c(F)cccc3Cl)c3scnc3C(F)F)CC2)nc1` (centres unmarked) [Example 100, 2-Chloro-N-{2-[4-(difluoromethyl)-1,3-thiazol-5-yl]-2-(4-{[(5-methylpyrimidin-2-yl)oxy]methyl}piperidin-1-yl)ethyl}-6-fluorobenzamide], the IC50 (P2X7 receptor) is reported as 37.8 nM and the IC50 (mP2X7) is reported as 66.7 nM.

`O=C(NCC(c1scnc1C(F)F)N1CCC(COc2ccc(F)cn2)CC1)c1c(F)cccc1Cl` (centres unmarked) [Example 102, 2-Chloro-N-{2-[4-(difluoromethyl)-1,3-thiazol-5-yl]-2-(4-{[(5-fluoropyridin-2-yl)oxy]methyl}piperidin-1-yl)ethyl}-6-fluorobenzamide] gave an IC50 (P2X7 receptor) of 32 nM and an IC50 (mP2X7) of 33.8 nM.

`O=C(NCC(c1scnc1C(F)F)N1CCC(COc2cncc(F)n2)CC1)c1c(F)cccc1Cl` (centres unmarked) [Example 105, 2-Chloro-N-{2-[4-(difluoromethyl)-1,3-thiazol-5-yl]-2-(4-{[(6-fluoropyrazin-2-yl)oxy]methyl}piperidin-1-yl)ethyl}-6-fluorobenzamide] gave an IC50 (P2X7 receptor) of 48.4 nM and an IC50 (mP2X7) of 30.4 nM.

`O=C(NCC(c1scnc1C(F)F)N1CCC(COc2ccnc(F)n2)CC1)c1c(F)cccc1Cl` (centres unmarked) [Example 107, 2-Chloro-N-{2-[4-(difluoromethyl)-1,3-thiazol-5-yl]-2-(4-{[(2-fluoropyrimidin-4-yl)oxy]methyl}piperidin-1-yl)ethyl}-6-fluorobenzamide] was tested, and the IC50 (P2X7 receptor) was 55.2 nM and the IC50 (mP2X7) was 24.2 nM.

With `N#Cc1cccnc1OCC1CCN(C(CNC(=O)c2c(F)cccc2Cl)c2scnc2C(F)F)CC1` (centres unmarked) [Example 108, 2-Chloro-N-[2-(4-{[(3-cyanopyridin-2-yl)oxy]methyl}piperidin-1-yl)-2-[4-(difluoromethyl)-1,3-thiazol-5-yl]ethyl]-6-fluorobenzamide] the IC50 (P2X7 receptor) was 25.6 nM and the IC50 (mP2X7) was 13.2 nM.

With `N#Cc1cccc(OCC2CCN(C(CNC(=O)c3c(F)cccc3Cl)c3scnc3C(F)F)CC2)n1` (centres unmarked) [Example 109, 2-Chloro-N-[2-(4-{[(6-cyanopyridin-2-yl)oxy]methyl}piperidin-1-yl)-2-[4-(difluoromethyl)-1,3-thiazol-5-yl]ethyl]-6-fluorobenzamide] the IC50 (P2X7 receptor) was 24.9 nM and the IC50 (mP2X7) was 19.2 nM.

For `N#Cc1ccncc1OCC1CCN(C(CNC(=O)c2c(F)cccc2Cl)c2scnc2C(F)F)CC1` (centres unmarked) [Example 111, 2-Chloro-N-[2-(4-{[(4-cyanopyridin-3-yl)oxy]methyl}piperidin-1-yl)-2-[4-(difluoromethyl)-1,3-thiazol-5-yl]ethyl]-6-fluorobenzamide], the IC50 (P2X7 receptor) was 22.5 nM and the IC50 (mP2X7) was 16.1 nM.

`Cc1c(F)ncnc1OCC1CCN(C(CNC(=O)c2c(F)cccc2Cl)c2scnc2C(F)F)CC1` (centres unmarked) [Example 113, 2-Chloro-N-{2-[4-(difluoromethyl)-1,3-thiazol-5-yl]-2-(4-{[(6-fluoro-5-methylpyrimidin-4-yl)oxy]methyl}piperidin-1-yl)ethyl}-6-fluorobenzamide] was tested, and the IC50 (P2X7 receptor) was 38.5 nM and the IC50 (mP2X7) was 17.5 nM.

`O=C(NCC(c1scnc1C(F)F)N1CCC(COc2nccc(C(F)(F)F)n2)CC1)c1c(F)cccc1Cl` (centres unmarked) [Example 114, 2-Chloro-N-{2-[4-(difluoromethyl)-1,3-thiazol-5-yl]-2-[4-({[4-(trifluoromethyl)pyrimidin-2-yl]oxy}methyl)piperidin-1-yl]ethyl}-6-fluorobenzamide] gave an IC50 (P2X7 receptor) of 50.7 nM and an IC50 (mP2X7) of 37.2 nM.

With `O=C(NCC(c1scnc1C(F)F)N1CCC(COc2cc(C(F)(F)F)ncn2)CC1)c1c(F)cccc1Cl` (centres unmarked) [Example 115, 2-Chloro-N-{2-[4-(difluoromethyl)-1,3-thiazol-5-yl]-2-[4-({[6-(trifluoromethyl)pyrimidin-4-yl]oxy}methyl)piperidin-1-yl]ethyl}-6-fluorobenzamide] the IC50 (P2X7 receptor) was 74.5 nM and the IC50 (mP2X7) was 44.3 nM.

`O=C(NCC(c1scnc1C(F)F)N1CCC(COc2ccn3nccc3n2)CC1)c1c(F)cccc1Cl` (centres unmarked) [Example 117, 2-Chloro-N-{2-[4-(difluoromethyl)-1,3-thiazol-5-yl]-2-[4-({pyrazolo[1,5-a]pyrimidin-5-yloxy}methyl)piperidin-1-yl]ethyl}-6-fluorobenzamide] showed an IC50 (P2X7 receptor) of 48.2 nM and an IC50 (mP2X7) of 35.8 nM.

With `O=C(NCC(c1scnc1C(F)F)N1CCC(COc2cncc3nncn23)CC1)c1c(F)cccc1Cl` (centres unmarked) [Example 118, 2-Chloro-N-{2-[4-(difluoromethyl)-1,3-thiazol-5-yl]-2-[4-({[1,2,4]triazolo[4,3-a]pyrazin-5-yloxy}methyl)piperidin-1-yl]ethyl}-6-fluorobenzamide] the IC50 (P2X7 receptor) was 214 nM and the IC50 (mP2X7) was 256 nM.

`O=C(NCC(c1scnc1C(F)F)N1CCC(COc2ncccc2Cl)CC1)c1c(F)cccc1Cl` (centres unmarked) [Example 120, 2-Chloro-N-[2-(4-{[(3-chloropyridin-2-yl)oxy]methyl}piperidin-1-yl)-2-[4-(difluoromethyl)-1,3-thiazol-5-yl]ethyl]-6-fluorobenzamide] gave an IC50 (P2X7 receptor) of 32.5 nM and an IC50 (mP2X7) of 16.4 nM.

With `N#Cc1cnccc1OCC1CCN(C(CNC(=O)c2c(F)cccc2Cl)c2scnc2C(F)F)CC1` (centres unmarked) [Example 122, 2-Chloro-N-[2-(4-{[(3-cyanopyridin-4-yl)oxy]methyl}piperidin-1-yl)-2-[4-(difluoromethyl)-1,3-thiazol-5-yl]ethyl]-6-fluorobenzamide] the IC50 (P2X7 receptor) was 39.6 nM and the IC50 (mP2X7) was 44.2 nM.

`O=C(NCC(c1scnc1C(F)F)N1CCC(COc2cc(F)ccn2)CC1)c1c(F)cccc1Cl` (centres unmarked) [Example 126, 2-chloro-N-{2-[4-(difluoromethyl)-1,3-thiazol-5-yl]-2-(4-{[(4-fluoropyridin-2-yl)oxy]methyl}piperidin-1-yl)ethyl}-6-fluorobenzamide] was tested, and the IC50 (P2X7 receptor) was 36.5 nM and the IC50 (mP2X7) was 34.7 nM.

Source: US20240034737A1, “Heterocyclic Derivatives as P2X7 Receptor Antagonists” (BREYE THERAPEUTICS APS, priority 2020, published 2024)
